Laboratory results: ChEMBL document CHEMBL5724914, “Linking interpersonal differences in gut microbiota composition and drug biotransformation activity” (2024)

Experiments:
[1] = human gut metagenome, 24 h, 2 µM
[2] = human gut metagenome, 24 h, 2 µM; remark: listed apart in the source
[3] = (§1) The drug is tested on Z-013 corresponding to rabbit gut metagenome with ENA study accession number: PRJEB37062 and ENA sample accession number: ERS12561813 for biotransformation under anaerobic condition. The drug concentrations were measured over 9 timepoints collected between 0 and 24 hours of incubation by liquid-chromatography-coupled mass spectrometry (LC–MS); details: 2 µM
[4] = as §1, with “Z-020” for “Z-013”, “ERS12561819” for “ERS12561813”; details: 2 µM
[5] = as §1, with “WLS-370” for “Z-013”, “human” for “rabbit”, “ERS12561793” for “ERS12561813”; details: 2 µM
[6] = human gut metagenome, 24 h, 2 µM; remark: listed apart in the source
[7] = as §1, with “Z-004” for “Z-013”, “to” for “to rabbit gut”, “ERS12561804” for “ERS12561813”; details: 2 µM
[8] = as §1, with “WLS-240” for “Z-013”, “human” for “rabbit”, “ERS12561773” for “ERS12561813”; details: 2 µM
[9] = as §1, with “Z-026” for “Z-013”, “to” for “to rabbit gut”, “ERS12561825” for “ERS12561813”; details: 2 µM
[10] = human gut metagenome, 24 h, 2 µM; remark: listed apart in the source
[11] = as §1, with “Z-010” for “Z-013”, “to” for “to rabbit gut”, “ERS12561810” for “ERS12561813”; details: 2 µM
[12] = as §1, with “WLS-220” for “Z-013”, “human” for “rabbit”, “ERS12561769” for “ERS12561813”; details: 2 µM
[13] = as §1, with “WLS-350” for “Z-013”, “human” for “rabbit”, “ERS12561789” for “ERS12561813”; details: 2 µM
[14] = human gut metagenome, 24 h, 2 µM; remark: listed apart in the source
[15] = human gut metagenome, 24 h, 2 µM; remark: listed apart in the source
[16] = human gut metagenome, 24 h, 2 µM; remark: listed apart in the source
[17] = as §1, with “Z-027” for “Z-013”, “to” for “to rabbit gut”, “ERS12561826” for “ERS12561813”; details: 2 µM
[18] = human gut metagenome, 24 h, 2 µM; remark: listed apart in the source
[19] = human gut metagenome, 24 h, 2 µM; remark: listed apart in the source
[20] = as §1, with “Z-003” for “Z-013”, “pig” for “rabbit”, “ERS12561803” for “ERS12561813”; details: 2 µM
Note: call rule not given here.

| SMILES | Bacterial Biotransformation [1] | Bacterial Biotransformation [2] | Bacterial Biotransformation [3] | Bacterial Biotransformation [4] | Bacterial Biotransformation [5] | Bacterial Biotransformation [6] | Bacterial Biotransformation [7] | Bacterial Biotransformation [8] | Bacterial Biotransformation [9] | Bacterial Biotransformation [10] | Bacterial Biotransformation [11] | Bacterial Biotransformation [12] | Bacterial Biotransformation [13] | Bacterial Biotransformation [14] | Bacterial Biotransformation [15] | Bacterial Biotransformation [16] | Bacterial Biotransformation [17] | Bacterial Biotransformation [18] | Bacterial Biotransformation [19] | Bacterial Biotransformation [20] |
| --- | --- | --- | --- | --- | --- | --- | --- | --- | --- | --- | --- | --- | --- | --- | --- | --- | --- | --- | --- | --- |
| CCc1oc2ccccc2c1C(=O)c1cc(Br)c(O)c(Br)c1 [BENZBROMARONE] | Compound metabolized | Compound metabolized | Compound NOT metabolized | Compound metabolized | Compound NOT metabolized | Compound NOT metabolized | Compound NOT metabolized | Compound metabolized | Compound NOT metabolized | Compound metabolized | Compound metabolized | Compound metabolized | Compound NOT metabolized | Compound metabolized | Compound metabolized | Compound metabolized | Compound NOT metabolized | Compound metabolized | Compound metabolized | Compound metabolized |
| CC(NC(C)(C)C)C(=O)c1cccc(Cl)c1 (stereo not given) [BUPROPION] | Compound NOT metabolized | Compound NOT metabolized | Compound metabolized | Compound NOT metabolized | Compound NOT metabolized | Compound NOT metabolized | Compound NOT metabolized | Compound NOT metabolized | Compound NOT metabolized | Compound NOT metabolized | Compound NOT metabolized | Compound NOT metabolized | Compound NOT metabolized | Compound metabolized | Compound metabolized | Compound NOT metabolized | Compound NOT metabolized | Compound NOT metabolized | Compound NOT metabolized | Compound NOT metabolized |
| O=C1CC2(CCCC2)CC(=O)N1CCCCN1CCN(c2ncccn2)CC1 [BUSPIRONE] | Compound NOT metabolized | Compound metabolized | Compound NOT metabolized | Compound NOT metabolized | Compound NOT metabolized | Compound metabolized | Compound NOT metabolized | Compound metabolized | Compound NOT metabolized | Compound NOT metabolized | Compound metabolized | Compound NOT metabolized | Compound metabolized | Compound metabolized | Compound metabolized | Compound metabolized | Compound NOT metabolized | Compound NOT metabolized | Compound metabolized | Compound metabolized |
| CCCC(C)(COC(N)=O)COC(=O)NC(C)C (stereo not given) [CARISOPRODOL] | Compound metabolized | Compound metabolized | Compound NOT metabolized | Compound metabolized | Compound metabolized | Compound metabolized | Compound metabolized | Compound metabolized | Compound NOT metabolized | Compound NOT metabolized | Compound metabolized | Compound metabolized | Compound metabolized | Compound metabolized | Compound metabolized | Compound NOT metabolized | Compound metabolized | Compound metabolized | Compound metabolized | Compound metabolized |
| COc1ccccc1OCCNCC(O)COc1cccc2[nH]c3ccccc3c12 (stereo not given) [CARVEDILOL] | Compound NOT metabolized | Compound metabolized | Compound NOT metabolized | Compound NOT metabolized | Compound NOT metabolized | Compound NOT metabolized | Compound NOT metabolized | Compound metabolized | Compound NOT metabolized | Compound metabolized | Compound metabolized | Compound metabolized | Compound metabolized | Compound metabolized | Compound metabolized | Compound metabolized | Compound NOT metabolized | Compound metabolized | Compound metabolized | Compound NOT metabolized |
| CN1CCC[C@@H]1CCO[C@](C)(c1ccccc1)c1ccc(Cl)cc1.O=C(O)/C=C/C(=O)O [CLEMASTINE FUMARATE] | Compound NOT metabolized | Compound metabolized | Compound NOT metabolized | Compound NOT metabolized | Compound metabolized | Compound NOT metabolized | Compound NOT metabolized | Compound NOT metabolized | Compound NOT metabolized | Compound metabolized | Compound NOT metabolized | Compound NOT metabolized | Compound metabolized | Compound metabolized | Compound metabolized | Compound metabolized | Compound NOT metabolized | Compound NOT metabolized | Compound NOT metabolized | Compound NOT metabolized |
| CC(C)(C)NCC(O)c1cc(Cl)c(N)c(Cl)c1 (stereo not given) [CLENBUTEROL] | Compound NOT metabolized | Compound NOT metabolized | Compound NOT metabolized | Compound NOT metabolized | Compound NOT metabolized | Compound NOT metabolized | Compound NOT metabolized | Compound NOT metabolized | Compound NOT metabolized | Compound NOT metabolized | Compound NOT metabolized | Compound NOT metabolized | Compound NOT metabolized | Compound NOT metabolized | Compound NOT metabolized | Compound NOT metabolized | Compound NOT metabolized | Compound NOT metabolized | Compound NOT metabolized | Compound NOT metabolized |
| C[N+]12CCC(CC1)C(OC(=O)C(O)(c1ccccc1)c1ccccc1)C2.[Br-] (stereo not given) [CLIDINIUM BROMIDE] | Compound NOT metabolized | Compound metabolized | Compound NOT metabolized | Compound NOT metabolized | Compound metabolized | Compound NOT metabolized | Compound NOT metabolized | Compound metabolized | Compound NOT metabolized | Compound metabolized | Compound metabolized | Compound NOT metabolized | Compound metabolized | Compound metabolized | Compound NOT metabolized | Compound metabolized | Compound NOT metabolized | Compound metabolized | Compound metabolized | Compound metabolized |
